Results as given in patent publication US7033829B2, “Method to inhibit cell growth using oligonucleotides” (Trustees of Boston University, priority 2000, dated 2006).
Oligonucleotides are written 5' to 3', each unit as a sugar letter and its base; * is a phosphorothioate linkage, no mark a phosphodiester; rarer units and linkages stand in square brackets, end groups in braces. Plain capitals give the bases only. d = 2'-deoxy (DNA); {P} = phosphate

Assays:
[1] = system: tumor necrosis factor alpha gene (TNFα); test: Northern blot of TNFα in keratinocytes; type: cell-based, human; settings: 24–72 hours
Text: This immunomodulatory cytokine, known to be induced by UV irradiation, may thus be induced by T2. Use of locally applied DNA fragments, deoxynucleotides, dinucleotides, or dinucleotide dimers is useful in immunomodulation of cutaneous reactions and in treatment or prevention of diseases or conditions involving immune mediators.

LacZ reporter plasmid = test: UV-induced mutation frequency in LacZ transgenic mice; type: in vivo
Text: Transgenic mice carrying multiple genomic copies of a LacZ reporter plasmid were used. One hundred μM pTpT in polypropyleneglycol was applied to one ear and vehicle alone to the other ear, daily for four days. On the fifth day, both ears were exposed to 100 mJ/cm^2 UVB light. This procedure was repeated weekly for 3, 5 or 7 weeks (3 mice/group). One week after the final irradiation, LacZ plasmids were harvested from the ear epidermis. Using methods well known in the art, the plasmids were recovered from genomic DNA by restriction enzyme digestion and specific binding to the LacI protein. Mutant LacZ plasmids were positively selected by transfection into bacteria and growth on selective medium and the mutation frequency was determined.

caspase-3 = test: Caspase-3 activity in Jurkat cells; type: cell-based, human; settings: 40 μM
Protocol: Duplicate cultures of Jurkat cells were cultured and treated with oligonucleotides as described above. At 48, 72 and 96 hours of treatment, cells were collected by centrifugation, washed and then the pellet lysed by repeated cycles of freeze-thawing. The lysate was then clarified by centrifugation and the supernatant used for protein analysis and Caspase-3 activity assay using the components and instructions of the Colorimetric CaspACE Assay System from Promega (Madison, Wis.). The assay uses the substrate Ac-DEVD-pNA and calorimetrically measures release of free pNA. Caspase activity is expressed as pmol of pNA produced/hour/μg protein.
Apoptosis was also detected by the DNA end-labeling TUNEL assay. Jurkat cells were treated with 40 μM oligonucleotides for 72 hours. Cells were then collected and the TUNEL assay was carried out. […] The activation of caspase-3, another marker of apoptosis, was also examined. Duplicate cultures of Jurkat cells were cultured and treated with oligonucleotides as described above for 48, 72 and 96 hours and caspase-3 activity was measured. The activity of caspase-3 was 50% higher after 48 hours of treatment with the telomere overhang homolog, compared to controls, and 3–4 fold higher in these cells at 72 and 96 hours (FIG. 27). Thus, the oligonucleotide homologous to the telomere 3′ overhang specifically induces an S phase arrest and apoptosis in these cells.

[2] = system: E2F1, p53, p53 phosphorylated at serine 15; test: Western blot of E2F1, p53 and phospho-p53 in neonatal fibroblasts; type: cell-based, human
Protocol: Cells were plated at a density of 180,000 cells/ml in RPMI 1640 medium supplemented with 3% FBS. Cells were treated with 40 μM of either of the oligonucleotides for 72 hours. Cells were then collected, washed and fixed for 30 minutes in 4% paraformaldehyde and then permeabilized with 0.1% Triton X-100 for 2 minutes. The TUNEL assay was carried out with components and instructions of the In Situ Cell Death Detection Kit using fluorescein-labeled dUTP from Boehringer Mannheim. TUNEL-positive cells were detected by FACS analysis and confocal microscopy. Cellular Uptake of Oligonucleotides For confocal analysis, Jurkat cells were plated on Permanox chamber slides (Lab-Tek, Naperville, Ill.) and treated for 4 hours with fluorescein phosphoramidite (FAM)-labeled oligonucleotides (Research Genetics, Inc., Huntsville, Ala.). Adherent cells were fixed in 4% paraformaldehyde in PBS, stained with propidium iodide (PI) to identify nuclei, mounted with Slowfade reagent (Molecular Probes, Eugene, Oreg.), covered with a coverslip and stored at 4° C. in the dark. Uptake of the oligonucleotides was assessed in 5–10 μm sections with a Carl Zeiss LSM 510 confocal laser microscope. Computer images assign green to the FAM-oligonucleotides, red to PI, and yellow to co-localization of the signals. FACS analysis was performed on Jurkat cells identically treated with the FAM-oligonucleotides for 4 hours, then fixed in 0.5 ml of 4% paraformaldehyde overnight at 4° C. Fluorescence was measured on the FL-1 channel. Western Blot Analysis and Antibodies Western blot analysis was performed as previously described [Eller, M. S., et al., (1996), Proc Natl Acad Sci USA 93, 1087–1092]. Antibody Ab-6 (DO-1 clone, Oncogene Research Products, Cambridge, Mass.) detected p53; antibody KH95 (Santa Cruz Biotechnology, Inc., Santa Cruz, Calif.) detected E2F1; antibody Ab-4 (Oncogene Research products) detected p73. Phospho-p53 (serine 15) was detected using the #9284 polyclonal antibody and phospho-p95/Nbs1 (serine 343) was detected by a phospho-p95/Nbs1-specific polyclonal antibody, both antibodies from Cell Signaling Technology (Beverly, Mass.). p95/Nbs1 antibody (#NB-100-143, Novus Biologicals, Littleton, Colo.) and an actin antibody (I-19, Santa Cruz Biotechnology, Santa Cruz, Calif.) were also used. Modification of p95/Nbs1 Jurkat and SCC12F cells were cultured and treated with the oligonucleotides as described above. After the indicated times, total protein was collected and analyzed by 8% PAGE and western blot using a polyclonal antibody to p95/Nbs1 (#NB-100-143, Novus Biologicals, Littleton, Colo.). Immunoprecipitation and treatment with a serine/threonine phosphatase was performed as described by Lim et al. [Lim, D. S. et al., Nature 404:613–617, 2000]. Transient Transfection and Expression of TRF2^DN The Ad TRF2^DN expression vector was the kind gift of Dr. Titia deLange (Rockefeller University). The control vector, pCMV LUC was the gift of Dr. M. Hedayati, Johns Hopkins University. Cells were plated at a density of 3.5×10^3 cells/cm^2. One day later, the cultures were transfected with 1 μg plasmid DNA/35 mm culture dish, using the Fugene 6 Transfection Reagent (Roche Molecular Biochemicals, Indianapolis, Ind.), following the protocol supplied by the manufacturer. Cells were collected at the indicated times after transfection and p95/Nbs1 was examined by western blot as described. Telomere Length Normal human fibroblasts were cultured for 5 days in the presence of either diluent or 40 μM 11mer-1, -2 or -3. The cells were then collected and the genomic DNA isolated using the DNeasy Tissue Kit (Qiagen, Valencia, Calif.). Telomere length was determined essentially as described by van Steensel and de Lange (van Steensel, B. and T. de Lange. 1997, Nature 385: 740–743) using the Telo TAGGG Telomere Length Assay from Roche Molecular Biochemicals (Indianapolis, Ind.) and the protocol supplied by the manufacturer. […]

## thymidine dinucleotide [pTpT]
[1]
  TNFα gene expression (Northern blot): induction of the tumor necrosis factor alpha gene
LacZ reporter plasmid; 100 μM topical, weekly UVB, after 3 weeks (diluent 293)
  mutation frequency: 200
LacZ reporter plasmid; after 3, 5, and 7 weeks
  lower mutation frequency than diluent treated skin: 20–30%
LacZ reporter plasmid; after 5 weeks (diluent 216)
  mutation frequency: 155
LacZ reporter plasmid; after 7 weeks (diluent 322)
  mutation frequency: 261

## pGTTAGGGTTAG (DNA {P}-dGdTdTdAdGdGdGdTdTdAdG) [SEQ ID NO: 5]
caspase-3; 72 and 96 hours
  caspase-3 activity higher compared to controls: 3–4 fold
caspase-3; 48 hours
  caspase-3 activity higher compared to controls: 50%
[2]
  E2F1 increase peaked after: 12 to 24 h
  increase in E2F1 seen as early as: 4 h
  phosphorylated p53 (serine 15) first detected at: 4 h
[2]; 40 μM, 24 hours, densitometry
  increase in E2F1 compared to diluent or 11mer-2 treated controls: 170–250%
[2]; 40 μM, 48 hours
  increase in p53 compared to diluent or 11mer-2 treated controls: 60–300%
[2]; 40 μM, 72 hours
  increase in p53 compared to diluent or 11mer-2 treated controls: 240–380%
[2]; sustained through at least 48 hours
  p53 protein phosphorylated at serine 15: striking and selective increase
